# Columns and labels:
# Format in all cases: in vivo
# [1] = tested on: galium (catchweed bedstraw, Galium aparine); test: Test B postemergence plant response
# In short: (§1)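 Values are visual control ratings (0 to 100) recorded approximately 10 days after postemergence application to greenhouse-grown plants of 2 to 10 cm, one- to two-leaf stage, each judged against untreated controls.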
# [2] = tested on: blackgrass (Alopecurus myosuroides); test: Test B postemergence plant response
# In short: as §1
# [3] = tested on: barnyardgrass (Echinochloa crus-galli); test: Test B pre-/postemergence plant response
# In short: (§2)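 Evaluation is visual, about 10 days after application, rating injury from 0 (none) to 100 (complete control) relative to untreated controls. Application was a preemergence soil spray on seeded pots or a postemergence spray on one- to two-leaf plants.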
# [4] = tested on: ragweed (common ragweed, Ambrosia elatior); test: Test B pre-/postemergence plant response
# In short: as §2
# [5] = tested on: corn (Zea mays); test: Test B pre-/postemergence plant response
# In short: as §2
# [6] = tested on: Italian ryegrass (Lolium multiflorum); test: Test B pre-/postemergence plant response
# In short: as §2
# [7] = tested on: giant foxtail (Setaria faberii); test: Test B pre-/postemergence plant response
# In short: as §2
# [8] = tested on: wheat (Triticum aestivum); test: Test B pre-/postemergence plant response
# In short: as §2
# [9] = tested on: pigweed (Amaranthus retroflexus); test: Test B pre-/postemergence plant response
# In short: as §2
# [10] = tested on: kochia (Kochia scoparia); test: Test B pre-/postemergence plant response
# In short: as §2
# [11] = tested on: barnyardgrass (Echinochloa crus-galli); test: Test C flooded paddy test plant response; details: Flood, 250 g ai/ha; scale of 0 to 100 where 0 is no effect and 100 is complete control; 13 to 15 days
# In short: (§3)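 Two-leaf stage → flood to 3 cm → compound into water → hold depth, greenhouse 13–15 d → visual score vs controls (0 none, 100 complete control).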
# [12] = tested on: rice (Oryza sativa); test: Test C flooded paddy test plant response; details: Flood, 250 g ai/ha; scale of 0 to 100 where 0 is no effect and 100 is complete control; 13 to 15 days
# In short: as §3
# [13] = tested on: ducksalad (Heteranthera limosa); test: Test C flooded paddy test plant response; details: Flood, 250 g ai/ha; scale of 0 to 100 where 0 is no effect and 100 is complete control; 13 to 15 days
# In short: as §3
# [14] = tested on: small-flower umbrella sedge (Cyperus difformis); test: Test C flooded paddy test plant response; details: Flood, 250 g ai/ha; scale of 0 to 100 where 0 is no effect and 100 is complete control; 13 to 15 days
# In short: as §3
# [15] = 125 g ai/ha, postemergence, 0 to 100 scale, 0 no effect, 100 complete control
# [16] = Postemergence, 31 g ai/ha, 0 to 100 scale (0 no effect, 100 complete control)
# [17] = 31 g ai/ha, Preemergence, 0 to 100 scale where 0 is no effect and 100 is complete control
# [18] = Preemergence, 125 g ai/ha, 0 to 100 scale (0 no effect, 100 complete control)
# [19] = 31 g ai/ha, Postemergence, 0 to 100 scale, 0 no effect, 100 complete control
# [20] = Preemergence, 31 g ai/ha, 0 to 100 scale (0 no effect, 100 complete control)
# [21] = Preemergence, 125 g ai/ha, 0 to 100 scale where 0 is no effect and 100 is complete control
# [22] = Postemergence, 500 g ai/ha, 0 to 100 scale (0 no effect, 100 complete control)
# [23] = Preemergence, 500 g ai/ha, 0 to 100 scale where 0 is no effect and 100 is complete control
compound,measurement,setting,value
C=C(C)c1cc(-c2ccccc2Oc2ncc(Br)cn2)on1 [Compound 197],"Plant response rating, Galium",[1]; [15],50
same,"Plant response rating, Galium",[1]; [16],10
same,"Plant response rating, Blackgrass",[2]; [15],0
same,"Plant response rating, Blackgrass",[2]; [16],0
same,"Plant response rating, Barnyardgrass",[3]; [17],0
same,"Plant response rating, Barnyardgrass",[3]; [15],0
same,"Plant response rating, Barnyardgrass",[3]; [16],0
same,Barnyardgrass plant response rating,[3]; [18],0
same,"Plant response rating, Ragweed",[4]; [17],0
same,"Plant response rating, Ragweed",[4]; [15],0
same,"Plant response rating, Ragweed",[4]; [16],0
same,Ragweed plant response rating,[4]; [18],0
same,"Plant response rating, Corn",[5]; [15],0
same,"Plant response rating, Corn",[5]; [16],0
same,"Plant response rating, Ryegrass, Italian",[6]; [17],0
same,"Plant response rating, Ryegrass, Italian",[6]; [15],0
same,"Plant response rating, Ryegrass, Italian",[6]; [16],0
same,"Ryegrass, Italian plant response rating",[6]; [18],0
same,"Plant response rating, Foxtail, Giant",[7]; [17],0
same,"Plant response rating, Foxtail, Giant",[7]; [15],0
same,"Plant response rating, Foxtail, Giant",[7]; [16],0
same,"Foxtail, Giant plant response rating",[7]; [18],0
same,"Plant response rating, Wheat",[8]; [15],0
same,"Plant response rating, Wheat",[8]; [16],0
same,"Plant response rating, Pigweed",[9]; [17],0
same,"Plant response rating, Pigweed",[9]; [15],10
same,"Plant response rating, Pigweed",[9]; [16],10
same,Pigweed plant response rating,[9]; [18],0
same,"Plant response rating, Kochia",[10]; [17],0
same,"Plant response rating, Kochia",[10]; [15],0
same,"Plant response rating, Kochia",[10]; [16],0
same,Kochia plant response rating,[10]; [18],0
same,Barnyardgrass plant response rating,[11],20
same,Rice plant response rating,[12],0
same,Ducksalad plant response rating,[13],0
same,"Sedge, Umbrella plant response rating",[14],0
N#Cc1cc(-c2c(F)cccc2Oc2ncc(Cl)cn2)no1 [Compound 222],"Plant response rating, Galium",[1]; [15],90
same,"Plant response rating, Galium",[1]; [16],30
same,"Plant response rating, Blackgrass",[2]; [15],10
same,"Plant response rating, Blackgrass",[2]; [16],0
same,"Plant response rating, Barnyardgrass",[3]; [17],0
same,"Plant response rating, Barnyardgrass",[3]; [15],0
same,"Plant response rating, Barnyardgrass",[3]; [16],0
same,Barnyardgrass plant response rating,[3]; [18],0
same,"Plant response rating, Ragweed",[4]; [17],0
same,"Plant response rating, Ragweed",[4]; [15],20
same,"Plant response rating, Ragweed",[4]; [16],0
same,Ragweed plant response rating,[4]; [18],0
same,"Plant response rating, Corn",[5]; [15],30
same,"Plant response rating, Corn",[5]; [16],0
same,"Plant response rating, Ryegrass, Italian",[6]; [17],0
same,"Plant response rating, Ryegrass, Italian",[6]; [15],0
same,"Plant response rating, Ryegrass, Italian",[6]; [16],0
same,"Ryegrass, Italian plant response rating",[6]; [18],0
same,"Plant response rating, Foxtail, Giant",[7]; [17],0
same,"Plant response rating, Foxtail, Giant",[7]; [15],0
same,"Plant response rating, Foxtail, Giant",[7]; [16],0
same,"Foxtail, Giant plant response rating",[7]; [18],0
same,"Plant response rating, Wheat",[8]; [15],20
same,"Plant response rating, Wheat",[8]; [16],0
same,"Plant response rating, Pigweed",[9]; [17],20
same,"Plant response rating, Pigweed",[9]; [15],100
same,"Plant response rating, Pigweed",[9]; [16],30
same,Pigweed plant response rating,[9]; [18],90
same,"Plant response rating, Kochia",[10]; [17],0
same,"Plant response rating, Kochia",[10]; [15],30
same,"Plant response rating, Kochia",[10]; [16],20
same,Kochia plant response rating,[10]; [18],0
same,Barnyardgrass plant response rating,[11],0
same,Rice plant response rating,[12],0
same,Ducksalad plant response rating,[13],30
same,"Sedge, Umbrella plant response rating",[14],0
Cc1nnc(-c2ccccc2Oc2ncc(Cl)cn2)o1 [Compound 106],"Plant response rating, Galium",[1]; [19],0
same,"Plant response rating, Galium",[1]; [15],0
same,"Plant response rating, Blackgrass",[2]; [19],0
same,"Plant response rating, Blackgrass",[2]; [15],0
same,"Plant response rating, Barnyardgrass",[3]; [19],0
same,"Plant response rating, Barnyardgrass",[3]; [15],0
same,Barnyardgrass plant response rating,[3]; [20],0
same,"Plant response rating, Barnyardgrass",[3]; [21],0
same,"Plant response rating, Ragweed",[4]; [19],0
same,"Plant response rating, Ragweed",[4]; [15],0
same,Ragweed plant response rating,[4]; [20],0
same,"Plant response rating, Ragweed",[4]; [21],0
same,"Plant response rating, Corn",[5]; [19],0
same,"Plant response rating, Corn",[5]; [15],0
same,"Plant response rating, Ryegrass, Italian",[6]; [19],0
same,"Plant response rating, Ryegrass, Italian",[6]; [15],0
same,"Ryegrass, Italian plant response rating",[6]; [20],0
same,"Plant response rating, Ryegrass, Italian",[6]; [21],0
same,"Plant response rating, Foxtail, Giant",[7]; [19],0
same,"Plant response rating, Foxtail, Giant",[7]; [15],0
same,"Foxtail, Giant plant response rating",[7]; [20],0
same,"Plant response rating, Foxtail, Giant",[7]; [21],0
same,"Plant response rating, Wheat",[8]; [19],0
same,"Plant response rating, Wheat",[8]; [15],0
same,"Plant response rating, Pigweed",[9]; [19],0
same,"Plant response rating, Pigweed",[9]; [15],0
same,Pigweed plant response rating,[9]; [20],0
same,"Plant response rating, Pigweed",[9]; [21],0
same,"Plant response rating, Kochia",[10]; [19],0
same,"Plant response rating, Kochia",[10]; [15],0
same,Kochia plant response rating,[10]; [20],0
same,"Plant response rating, Kochia",[10]; [21],0
same,Barnyardgrass plant response rating,[11],0
same,Rice plant response rating,[12],0
same,Ducksalad plant response rating,[13],0
same,"Sedge, Umbrella plant response rating",[14],0
Cc1c(-c2ccccc2Oc2ncc(Cl)cn2)noc1C(F)(F)F [Compound 167],"Plant response rating, Galium",[1]; [15],10
same,"Plant response rating, Galium",[1]; [22],60
same,"Plant response rating, Blackgrass",[2]; [15],0
same,"Plant response rating, Blackgrass",[2]; [22],10
same,"Plant response rating, Barnyardgrass",[3]; [15],0
same,"Plant response rating, Barnyardgrass",[3]; [22],10
same,Barnyardgrass plant response rating,[3]; [18],0
same,"Plant response rating, Barnyardgrass",[3]; [23],10
same,"Plant response rating, Ragweed",[4]; [15],0
same,"Plant response rating, Ragweed",[4]; [22],0
same,Ragweed plant response rating,[4]; [18],0
same,"Plant response rating, Ragweed",[4]; [23],10
same,"Plant response rating, Corn",[5]; [15],0
same,"Plant response rating, Corn",[5]; [22],20
same,"Plant response rating, Ryegrass, Italian",[6]; [15],0
same,"Plant response rating, Ryegrass, Italian",[6]; [22],0
same,"Ryegrass, Italian plant response rating",[6]; [18],0
same,"Plant response rating, Ryegrass, Italian",[6]; [23],0
same,"Plant response rating, Foxtail, Giant",[7]; [15],0
same,"Plant response rating, Foxtail, Giant",[7]; [22],10
same,"Foxtail, Giant plant response rating",[7]; [18],0
same,"Plant response rating, Foxtail, Giant",[7]; [23],30
same,"Plant response rating, Wheat",[8]; [15],10
same,"Plant response rating, Wheat",[8]; [22],20
same,"Plant response rating, Pigweed",[9]; [15],10
same,"Plant response rating, Pigweed",[9]; [22],70
same,Pigweed plant response rating,[9]; [18],0
same,"Plant response rating, Pigweed",[9]; [23],20
same,"Plant response rating, Kochia",[10]; [15],10
same,"Plant response rating, Kochia",[10]; [22],60
same,Kochia plant response rating,[10]; [18],0
same,"Plant response rating, Kochia",[10]; [23],30
same,Barnyardgrass plant response rating,[11],0
same,Rice plant response rating,[12],0
same,Ducksalad plant response rating,[13],0
same,"Sedge, Umbrella plant response rating",[14],0

# Source: patent US10131652B2, “Pyrimidinyloxy benzene derivatives as herbicides” (E. I. DU PONT DE NEMOURS AND COMPANY, priority 2014, dated 2018)
